Source: patent publication US7041699B2, “Nutrient pharmaceutical formulation comprising polyphenols and use in treatment of cancer” (Matthias Rath, priority 2002, dated 2006)

Assays:
[1] = system: MDA-MB 231 human breast cancer cells; experiment: Matrigel invasion and migration, MDA-MB-231
Method: The studies were conducted using Matrigel (Becton Dickinson) inserts in compatible 24-well plates. Fibroblasts were seeded and grown in the wells of the plate using DMEM. When fibroblasts reached confluence, the medium was withdrawn and replaced with 750 μl of the media designated for the treatment. The cancer cells (5×10^4) suspended in 250 μl of the medium supplemented with nutrients as specified in the design of the experiment were seeded on the insert in the well. Thus both the medium on the insert and in the well contained the same supplements. The plates with the inserts were then incubated (in air-circulating incubator for MDA-MB-231 cells and 5% CO2 incubator for colon cancer cells and melanoma cells) for 18–20 hours. After incubation, the media from the wells was withdrawn. The cells on the upper surface of the inserts were gently scrubbed away with cotton swab. The cells that had penetrated the Matrigel membrane and had migrated on the lower surface of the Matrigel were stained with hemacolor stain (EM Sciences) and were visually counted under the microscope. The results were subjected to ANOVA and all the possible pairs were tested for significance at p<0.05.
The media in different studies were supplemented with ascorbic acid, proline, lysine and EGCG at concentrations as indicated.
MDA-MB 231 (ATCC) breast cancer cells were seeded on Matrigel insert in an improved Matrigel Invasion Chamber (BD). Conditioned media from normal human dermal fibroblast (Clonetics) supplemented with various agents (as indicated on FIG. 1) were added to the well. The chamber was incubated for 24 hours and the cells that had invaded the Matrigel membrane and had migrated into the lower surface of the membrane were counted.

[2] = system: MMP-2 and MMP-9; experiment: Gelatinase zymography, melanoma cells; format: cell-based, human; details: overall / dose dependence
Method: Gelatinase zymography was performed in 10% Novex pre-cast polyacrylamide gel (Invitrogen) in the presence of 0.1% gelatin. Culture media (20 μl) was loaded and SDS-PAGE was performed with tris-glysine SDS buffer. After electrophoresis, the gels were washed with 5% Triton X-100 for 30 minutes and stained. Protein standards were run concurrently and approximate molecular weights were determined.
The effect of EGCG on melanoma cells with basal and ascorbic acid, proline, and lysine supplementation on expression of MMPs is depicted in FIG. 9 by gelatinase zymography. […] The intensity of bands for basal and ascorbic acid, lysine and proline combination were the same.

[3] = system: A2058 human melanoma cells; experiment: Matrigel invasion and migration, melanoma cells; format: cell-based; details: conditioned media from NHDF, 24 hours
Method: The studies were conducted using Matrigel (Becton Dickinson) inserts in compatible 24-well plates. Fibroblasts were seeded and grown in the wells of the plate using DMEM. When fibroblasts reached confluence, the medium was withdrawn and replaced with 750 μl of the media designated for the treatment. The cancer cells (5×10^4) suspended in 250 μl of the medium supplemented with nutrients as specified in the design of the experiment were seeded on the insert in the well. Thus both the medium on the insert and in the well contained the same supplements. The plates with the inserts were then incubated (in air-circulating incubator for MDA-MB-231 cells and 5% CO2 incubator for colon cancer cells and melanoma cells) for 18–20 hours. After incubation, the media from the wells was withdrawn. The cells on the upper surface of the inserts were gently scrubbed away with cotton swab. The cells that had penetrated the Matrigel membrane and had migrated on the lower surface of the Matrigel were stained with hemacolor stain (EM Sciences) and were visually counted under the microscope. […]
A2058 (ATCC) human melanoma cells were seeded on Matrigel insert in improved Matrigel Invasion Chamber (BD). […] The chamber was incubated for 24 hours and the cells that had invaded the Matrigel membrane and had migrated into the lower surface of the membrane were counted.

[4] = system: human melanoma cell line A2058; experiment: MTT cell proliferation/growth, melanoma cells
[5] = system: HCT116 human colon cancer cells; experiment: Matrigel invasion and migration, HCT116; format: cell-based
Method: The studies were conducted using Matrigel (Becton Dickinson) inserts in compatible 24-well plates. Fibroblasts were seeded and grown in the wells of the plate using DMEM. When fibroblasts reached confluence, the medium was withdrawn and replaced with 750 μl of the media designated for the treatment. The cancer cells (5×10^4) suspended in 250 μl of the medium supplemented with nutrients as specified in the design of the experiment were seeded on the insert in the well. Thus both the medium on the insert and in the well contained the same supplements. […] After incubation, the media from the wells was withdrawn. The cells on the upper surface of the inserts were gently scrubbed away with cotton swab. The cells that had penetrated the Matrigel membrane and had migrated on the lower surface of the Matrigel were stained with hemacolor stain (EM Sciences) and were visually counted under the microscope. The results were subjected to ANOVA and all the possible pairs were tested for significance at p<0.05. […]
HTCT116 (ATCC) human colon cancer cells were seeded on Matrigel insert in an improved Matrigel Invasion Chamber (BD). […] The chamber was incubated for 24 hours and the cells that had invaded the Matrigel membrane and had migrated into the lower surface of the membrane were counted.

[6] = system: human breast cancer cells MDA-MB-231; experiment: MTT cell proliferation/growth, breast cancer MDA-MB-231

SMILES | invasion reduced by ([1]; MDA-MB-231, another series, 100 μM ascorbic acid, 140 μM proline) [%] | expression of MMP-2 and MMP-9 (zymography bands) [2] | Matrigel invasion and migration (FIG. 3) [3] | cell proliferation (cell number, Basal = 100) ([4]; EGCG 50 μg/ml) [%] | cell proliferation (cell number, Basal = 100) ([4]; EGCG 10 and 20 μg/ml) | Matrigel invasion and migration (FIG. 1) ([1]; MDA-MB 231, conditioned media from NHDF, 24 hours) | Matrigel invasion (number of invading cells) compared to non-supplemented media ([1]; MDA-MB-231, EGCG 20 μg/ml) [%] | Matrigel invasion ([1]; MDA-MB-231, EGCG 50 μg/ml and 100 μg/ml) | Matrigel invasion of colon cancer cells (reduced to) ([5]; EGCG 20 μg/ml) [%] | Matrigel invasion and migration (FIG. 2) ([5]; conditioned media from NHDF, 24 hours) | cell number compared to control ([6]; EGCG 50 μg/ml) [%] | cell number compared to control ([6]; EGCG 100 μg/ml) [%] | cell number compared to control ([6]; EGCG 200 μg/ml) [%] | cell number compared to unsupplemented controls ([6]; EGCG up to 20 μg/ml)
O=C1O[C@H]([C@@H](O)CO)C(O)=C1O [ascorbic acid] | 36 |  |  |  |  |  |  |  |  |  |  |  |  | 
O=C(O[C@@H]1Cc2c(O)cc(O)cc2O[C@@H]1c1cc(O)c(O)c(O)c1)c1cc(O)c(O)c(O)c1 [EGCG, (−)-epigallocatechin-3-gallate] |  | inhibitory effect on their expression in a dose dependent fashion | inhibitory effect | 30 | Neither lysine, proline, and ascorbic acid nor EGCG at 10 and 20 μg/ml had any significant effect | inhibitory effect | 69.5±27.4 | complete inhibition | 44.9±3.3 | inhibitory effect | 66.1±5.3 | 33.6±2 | 29.6±0.8 | did not have any significant inhibitory effect
